Source: the OPERA property sets (Mansouri et al. 2018)

Details: for log10 BCF / log10 biotransformation half-life (days): fish

CC(C)COC(=O)Cc1ccccc1
boiling point: 247 °C

Cc1cccc2ccc(Cl)nc12
boiling point: 287 °C
melting point: 61 °C

CC(C)=CC(C)C
boiling point: 83.4 °C
melting point: -128 °C

ClCc1ccc2c(c1)OCO2
melting point: 20.5 °C

COc1ccc([N+](=O)[O-])cc1N
melting point: 118 °C

C=CC(C)=CC
boiling point: 77 °C

CC(/C=C\c1ccccc1)c1ccccc1 (stereo unspecified)
boiling point: 311 °C
melting point: 47.5 °C

CCOC(=O)CC[C@H](N)C(=O)OCC.Cl
melting point: 109 °C

CCNC(=O)C1CC(C)CCC1C(C)C (stereo unspecified)
melting point: 88 °C

CCCCOC(=O)c1ccc(O)cc1
melting point: 68.5 °C

CC1CCCS1 (stereo unspecified)
boiling point: 134 °C
melting point: -101 °C

CNC(=O)O/N=C/C(C)(C)S(C)=O (stereo unspecified)
log10 Koc (L/kg): 0.56
log10 vapour pressure (mmHg): -4

COc1ccc2c(c1)[nH]c1c(C)nccc12
melting point: 273 °C

CC(=O)Nc1c(I)c(NC(C)=O)c(I)c(C(=O)[O-])c1I.[Na+]
melting point: 261 °C

O=P(O)(O)C(Cl)(Cl)P(=O)(O)O
melting point: 250 °C

CCN(Cc1ccc(Cl)nc1)C(=C[N+](=O)[O-])NC
melting point: 82.8 °C

CC(C)(OOC(C)(C)c1ccccc1)c1ccccc1
boiling point: 396 °C
ready biodegradability: not readily biodegradable
log10 BCF: 2.62
log10 biotransformation half-life (days): -0.01

Cc1cccc(O)c1O
boiling point: 241 °C
melting point: 68 °C

CO[C@@H]1C=C[C@@]23c4cc5c(cc4CO[C@]2(O)CN(C)[C@H]3C1)OCO5
melting point: 210 °C

Cc1c(C(C)OC(=O)CCC(=O)O)oc2ccc(C3=CC(=O)OC3)cc12 (stereo unspecified)
melting point: 144 °C

CCCCCCCCNCCCCCCCC
boiling point: 298 °C
melting point: 35.5 °C
ready biodegradability: readily biodegradable

CCCCCON=O
boiling point: 104 °C
log10 vapour pressure (mmHg): 0.598

CC(C)c1ccccc1-c1ccccc1
log10 vapour pressure (mmHg): -3.3

Cc1ncsc1C
boiling point: 158 °C
melting point: 83.5 °C

N#Cc1c(F)c(F)cc(F)c1F
melting point: 34 °C

O=C(O)c1ccccc1-c1ccc(C(F)(F)F)cc1
melting point: 170 °C

C[Si](C)(C)O[Si](C)(C)O[Si](C)(C)O[Si](C)(C)O[Si](C)(C)O[Si](C)(C)O[Si](C)(C)C
boiling point: 270 °C
log10 vapour pressure (mmHg): -2.5
melting point: -78 °C

CC(=O)C(C)=O
boiling point: 88 °C
log10 Henry constant (atm·m³/mol): -4.88
log10 vapour pressure (mmHg): 1.75
melting point: -1.2 °C

CCCCOc1ccc(/N=N/c2ccc(N)nc2N)cn1
melting point: 129 °C

CC(O)CNCC(C)O (stereo unspecified)
boiling point: 250 °C
log10 vapour pressure (mmHg): -3.9
melting point: 44.5 °C
ready biodegradability: readily biodegradable

C1=CCCC=CCCC=CCC1
boiling point: 240 °C
melting point: -9.25 °C
ready biodegradability: not readily biodegradable
log10 BCF: 3.92
log10 biotransformation half-life (days): 1.74

CCc1ccc(C(c2ccc(CC)cc2)C(Cl)Cl)cc1
melting point: 56 °C

O=[N+]([O-])Nc1ccccc1
melting point: 47.3 °C

CB(C)N(C)C
boiling point: 65 °C
melting point: -92 °C

NC(=O)NC1NC(=O)NC1=O (stereo unspecified)
melting point: 238 °C

Cc1ccc([N+](=O)[O-])cc1S(=O)(=O)O
ready biodegradability: not readily biodegradable

CCCCCNCCCCC
boiling point: 202 °C
log10 vapour pressure (mmHg): -0.815
ready biodegradability: readily biodegradable

Clc1ccc(-c2c(Cl)ccc(Cl)c2Cl)cc1
log10 Henry constant (atm·m³/mol): -3.85
log10 Koa: 8.41
log10 biotransformation half-life (days): 2.35

CC(COc1ccc(C(C)(C)C)cc1)OS(=O)OCCCl (stereo unspecified)
melting point: -31.7 °C

CC(CO)(CO)C(=O)O
melting point: 190 °C

O=C(O)c1cc(Cl)ccc1[N+](=O)[O-]
melting point: 139 °C

O=C(CCl)C(Cl)(Cl)Cl
boiling point: 183 °C
melting point: 65 °C

Clc1cccc(-c2c(Cl)ccc(Cl)c2Cl)c1
log10 biotransformation half-life (days): 2.47

CCNC(=S)NCC
melting point: 78 °C

CN(C)C(=O)N[C@@H]1C[C@@H]2C[C@H]1[C@@H]1CCC[C@H]21
melting point: 177 °C

CC(=O)NBr
melting point: 104 °C

O=[N+]([O-])c1ccc(O)c(F)c1
melting point: 121 °C

CCC(C#N)CC#N (stereo unspecified)
boiling point: 264 °C
log10 vapour pressure (mmHg): -1.72
melting point: -41 °C

Fc1c(F)c(F)c2c(F)c(F)c(F)c(F)c2c1F
boiling point: 209 °C
melting point: 87.5 °C

CC(N)Cc1ccccc1 (stereo unspecified)
log10 vapour pressure (mmHg): -0.62

c1cncc(-c2cccnc2)c1
boiling point: 292 °C
melting point: 68 °C

C#CC(C)(C)NC(=O)c1ccc(Cl)cc1
log10 Koc (L/kg): 1.9

CCC1(c2ccccc2)NC(=O)N(C)C1=O (stereo unspecified)
melting point: 136 °C

CCCC(=O)c1cc(O)c(O)cc1O
melting point: 154 °C

CCC(C)O (stereo unspecified)
log10 Henry constant (atm·m³/mol): -5.04
log10 Koa: 3.85
log10 vapour pressure (mmHg): 1.26
ready biodegradability: readily biodegradable

Ic1ccc(-c2ccccc2)cc1
boiling point: 320 °C
melting point: 114 °C

O=P(O)(O)CCCl
log10 Koc (L/kg): 0
log10 vapour pressure (mmHg): -7.01
melting point: 74.2 °C

Nc1c(Cl)cccc1Cl
log10 Koc (L/kg): 3.25
melting point: 39 °C

CC(C)(C)CN
boiling point: 82 °C

CC(O)C#N (stereo unspecified)
boiling point: 183 °C
log10 vapour pressure (mmHg): -0.925
melting point: -40 °C

CC(Cc1ccc(C(C)(C)C)cc1)CN1C[C@@H](C)O[C@@H](C)C1 (single isomer, unassigned)
log10 vapour pressure (mmHg): -4.59

CO[C@H]1C=CC2=CCN3CCC4=C(CC(=O)OC4)[C@]23C1
melting point: 99.5 °C

C#CCOc1cc(-n2nc3n(c2=O)CCCC3)c(Cl)cc1Cl
log10 vapour pressure (mmHg): -11.1
melting point: 168 °C

CC(C)CCN
boiling point: 96 °C

O=C(O)c1cncc(C(=O)O)c1
melting point: 324 °C

FCCCCBr
boiling point: 135 °C

Fc1ccc(Br)cc1Br
melting point: 69 °C

CCc1ccc(CC)cc1
boiling point: 184 °C
log10 vapour pressure (mmHg): 0.0253
melting point: -42.8 °C
ready biodegradability: not readily biodegradable
log10 BCF: 2.68
log10 biotransformation half-life (days): -0.01

CCCCNC(=O)NS(=O)(=O)c1ccc(N)cc1
melting point: 144 °C

ClC(Cl)=C(c1ccc(Cl)cc1)c1ccc(Cl)cc1
boiling point: 336 °C
log10 Henry constant (atm·m³/mol): -4.38
log10 Koa: 9.68
log10 Koc (L/kg): 4.82
log10 vapour pressure (mmHg): -5.22
melting point: 89 °C
log10 BCF: 4.08
log10 biotransformation half-life (days): 1.71

CC(Cl)(Cl)Cl
boiling point: 74 °C
log10 Henry constant (atm·m³/mol): -1.76
log10 Koa: 2.7
log10 Koc (L/kg): 1.95
log10 vapour pressure (mmHg): 2.09
melting point: -30.4 °C
ready biodegradability: not readily biodegradable
log10 BCF: 0.7
log10 biotransformation half-life (days): -1.39

CCc1nc(CC)nc(NS(=O)(=O)c2ccc(N)cc2)n1
melting point: 187 °C
ready biodegradability: not readily biodegradable

Cc1cccc(C(=O)O)c1
log10 vapour pressure (mmHg): -3.63
melting point: 109 °C
ready biodegradability: readily biodegradable

C=C[Si](C)(C)O[Si](C)(C)C=C
boiling point: 39 °C
melting point: -99.7 °C

O=c1[nH]c(=O)n([C@H]2C[C@H](O)[C@@H](CO)O2)cc1Br
melting point: 192 °C

CCOc1ccc([N+](=O)[O-])cc1
boiling point: 283 °C
melting point: 60 °C

NC(=O)c1ccccc1O
melting point: 142 °C

N#Cc1ccccc1C#N
melting point: 140 °C
ready biodegradability: not readily biodegradable
log10 BCF: 0.7
log10 biotransformation half-life (days): -0.67

Fc1c(F)c(F)c(Sc2c(F)c(F)c(F)c(F)c2F)c(F)c1F
melting point: 87 °C

CCC(CO)[N+](=O)[O-] (stereo unspecified)
melting point: -47 °C

COS(=O)OC
boiling point: 126 °C

CCOS(=O)(=O)C(F)(F)F
boiling point: 115 °C

C1=CC=CCC=C1
boiling point: 117 °C
log10 vapour pressure (mmHg): 1.37
melting point: -79.5 °C

O=c1c(-c2ccccc2)c1-c1ccccc1
melting point: 119 °C

O=C(O)COc1nn(Cc2ccccc2)c2ccccc12
melting point: 160 °C

N#CC1(O)CCCCC1
melting point: 35 °C

COC(=O)OC
boiling point: 90.5 °C
log10 vapour pressure (mmHg): 1.74
melting point: 3 °C

Clc1cc(Cl)c(-c2cc(Cl)c(Cl)c(Cl)c2)cc1Cl
log10 biotransformation half-life (days): 2.43

Cc1ccc(C)cc1
boiling point: 138 °C
log10 Henry constant (atm·m³/mol): -2.16
log10 Koa: 3.79
log10 Koc (L/kg): 2.41
log10 biodegradation half-life (days): 0.954
log10 vapour pressure (mmHg): 0.947
melting point: 13.2 °C
ready biodegradability: readily biodegradable
log10 BCF: 1.17

C#CCI
boiling point: 115 °C

CCOC(=O)c1ccccc1C(=O)c1ccccc1
melting point: 59.5 °C

O=C(NO)c1ccccc1O
melting point: 168 °C

Oc1ccc2cc(O)ccc2c1
melting point: 220 °C

CC1(C)[C@H](C(=O)O[C@H](C#N)c2cccc(Oc3ccccc3)c2)[C@@H]1C=C(Br)Br
log10 vapour pressure (mmHg): -7.82
melting point: 100 °C
log10 BCF: 2.51
log10 biotransformation half-life (days): 0.51

CNC(=O)COC(=O)c1ccccc1
melting point: 112 °C

O=C(O)C(Cl)(Cl)Cl
boiling point: 196 °C
log10 Henry constant (atm·m³/mol): -7.87
log10 Koc (L/kg): 0.3
log10 vapour pressure (mmHg): -1.22
melting point: 57.5 °C
ready biodegradability: not readily biodegradable
log10 BCF: 0.23

C1=CCC(c2ccncc2)CC1 (stereo unspecified)
boiling point: 226 °C
melting point: 22.1 °C

COc1ccc(/C=C/c2cc(OC)cc(=O)o2)cc1
melting point: 156 °C

O=C1CCCCCCCCC1
melting point: 28 °C

CC=C1CCCCC1
boiling point: 136 °C

C/C=C(\C)C(=O)OCC
boiling point: 156 °C

CC=Cc1ccc(OC)cc1
boiling point: 234 °C
log10 vapour pressure (mmHg): -1.15
melting point: 21.3 °C

Cc1nn(-c2cc(NS(C)(=O)=O)c(Cl)cc2Cl)c(=O)n1C(F)F
log10 vapour pressure (mmHg): -9.01
melting point: 122 °C

CC(C)CC(Cl)Cl
boiling point: 130 °C

CCNC(=O)C(C)OC(=O)Nc1ccccc1 (stereo unspecified)
melting point: 119 °C

COc1ccc(C(=O)O)cc1OC
log10 vapour pressure (mmHg): -3.61
melting point: 181 °C

CCCCN1CCOCC1
boiling point: 214 °C
melting point: -57.1 °C

Fc1ccc(C(c2ccc(F)cc2)C(Cl)(Cl)Cl)cc1
melting point: 44.5 °C

CCCCc1c(C)nc(N(C)C)nc1O
log10 Koc (L/kg): 1.95
log10 vapour pressure (mmHg): -4.96
melting point: 102 °C

CC(=O)c1cc2ccccc2o1
melting point: 76 °C

CCCc1cccc(CCC)c1O
boiling point: 256 °C
melting point: 27 °C

CCCC[P+](CCCC)(CCCC)Cc1ccc(Cl)cc1Cl.[Cl-]
log10 vapour pressure (mmHg): -6.15
melting point: 117 °C

Cc1ccc(C=O)cc1
boiling point: 204 °C
log10 vapour pressure (mmHg): -0.602
melting point: -6 °C
ready biodegradability: readily biodegradable

O=C(O)Cc1sc(-c2ccccc2)nc1-c1ccc(Cl)cc1
melting point: 162 °C

Oc1ccc(N=Nc2ccccc2)c(O)c1
melting point: 170 °C

CCC(C)CCc1ccccc1 (stereo unspecified)
boiling point: 220 °C

CCCCCCCCCCCCCCc1ccccc1
boiling point: 359 °C
log10 vapour pressure (mmHg): -4.62
melting point: 16 °C

OCC(Cl)CCl (stereo unspecified)
boiling point: 184 °C

CCCCCCCCCCCBr
log10 vapour pressure (mmHg): -1.92
melting point: -9 °C

CCCCCCCCCCCCCC(N)=O
melting point: 104 °C

[Br-].[Br-].c1cc[n+]2c(c1)-c1cccc[n+]1CC2
melting point: 337 °C

Cc1cc(C)nc(NS(=O)(=O)c2ccc(N)cc2)n1
melting point: 198 °C

O=C([O-])C(F)(F)C(F)F.[Na+]
log10 vapour pressure (mmHg): -3.52

NC(=O)C=Cc1ccccc1
melting point: 149 °C

O=C(Cl)c1cccc([N+](=O)[O-])c1
boiling point: 276 °C
melting point: 36 °C
